The target in one assay is human Smo (Homo sapiens (Human), UniProt Q99835). In words: Smo radioligand competition binding assay. Conditions: for inhibition at 0.05 µM: 0.05 μM test compound, read-out: Smo % inh. @ 0.05 μM. In outline:
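Membranes from HEK293 cells expressing surface human Smo 181-781 (40 μg protein/well) incubated 2 h at room temperature with test compound and tritiated Smo antagonist (3 nM), pH 7.5 Tris buffer; filtration and scintillation counting. Non-specific binding defined with 30 μM cold antagonist; IC50 from four-parameter sigmoidal fit.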
(In general: In a radioligand displacement assay an active substance lowers the binding of a labelled ligand.)

A further assay concerns Gli-Luc/MEF cells. As to the kind of experiment: Gli-Luc/MEF assay. It counts as cell-based, mouse. Conditions: Mus musculus, MEF; Shh-stimulated luciferase, 48 hours. The procedure, abridged: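 Mouse embryonic fibroblasts from Gli-Luc transgenic mice (luciferase under Gli response element) dosed with compounds (final […], 3-fold series), then stimulated with recombinant mouse Shh at final 2 μg/mL. After 48 h at 37 °C, luminescence read by Bright-Glo; IC50 from inhibition of Shh-induced signal.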

Sequence of human Smo (Q99835 181-787): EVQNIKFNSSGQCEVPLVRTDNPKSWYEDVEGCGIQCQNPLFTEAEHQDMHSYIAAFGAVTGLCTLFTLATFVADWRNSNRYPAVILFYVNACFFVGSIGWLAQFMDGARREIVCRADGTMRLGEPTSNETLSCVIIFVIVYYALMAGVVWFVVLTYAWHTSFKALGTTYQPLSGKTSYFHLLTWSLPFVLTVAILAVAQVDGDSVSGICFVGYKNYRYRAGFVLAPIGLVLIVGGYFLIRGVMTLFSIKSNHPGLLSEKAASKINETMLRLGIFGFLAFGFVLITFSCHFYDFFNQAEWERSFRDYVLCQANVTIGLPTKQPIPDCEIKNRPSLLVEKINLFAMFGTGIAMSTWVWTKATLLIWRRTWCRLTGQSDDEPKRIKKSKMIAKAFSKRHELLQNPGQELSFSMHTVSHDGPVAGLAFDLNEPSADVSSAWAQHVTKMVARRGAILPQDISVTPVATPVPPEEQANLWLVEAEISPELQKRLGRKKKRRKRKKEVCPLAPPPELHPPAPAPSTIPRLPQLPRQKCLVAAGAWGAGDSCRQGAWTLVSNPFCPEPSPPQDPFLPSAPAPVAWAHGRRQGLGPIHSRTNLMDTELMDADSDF

As a reminder, the IC50 is the concentration needed to halve the response being measured. Read a low IC50 as inhibition by little substance. Turning to `O=S(=O)(CCO)NC1CCN(c2ccc(Cl)c(-c3ccccn3)n2)CC1` [Example A-126, N-[1-(3-chloro-2,2′-bipyridin-6-yl)piperidin-4-yl]-2-hydroxyethanesulfonamide], on human Smo, the IC50 came out at 15.2 nM and the inhibition at 0.05 µM worked out at 96.1%. Also, the half-maximal inhibitory concentration (IC50) in the assay with Gli-Luc/MEF cells is 10.3 nM.

On to `Cc1cnc(-c2cc(N3CCC(NS(=O)(=O)C4CC4)CC3)ncc2Cl)c(C)c1` [Example A-127, N-[1-(5′-chloro-3,5-dimethyl-2,4′-bipyridin-2′-yl)piperidin-4-yl]cyclopropanesulfonamide], for which the IC50 came to 11.5 nM on human Smo and 5.03 nM in the assay with Gli-Luc/MEF cells. For the same molecule, the inhibition at 0.05 µM on human Smo was determined as 97.8%.

On to `CS(=O)(=O)CCC(=O)NC1CCN(c2ccc(Cl)c(-c3ccccn3)n2)CC1` [Example A-128, N-[1-(3-chloro-2,2′-bipyridin-6-yl)piperidin-4-yl]-3-(methylsulfonyl)propanamide], for which, on human Smo, the IC50 was determined as 31.3 nM and the inhibition at 0.05 µM came to 95%. For the same molecule, inhibition in the assay on Gli-Luc/MEF cells was half-maximal at 15.2 nM (IC50).

On to `CN(C)CC(=O)NC1CCN(c2ccc(Cl)c(-c3ccccn3)n2)CC1` [Example A-129, N-(1-(3-chloro-[2,2′-bipyridin]-6-yl)piperidin-4-yl)-2-(dimethylamino)acetamide], for which, on human Smo, the IC50 was determined as 54.3 nM and the inhibition at 0.05 µM was found to be 88.4%. This molecule came in with an IC50 in the assay on Gli-Luc/MEF cells of 8.12 nM.

For the molecule `O=C(CCO)NC1CCN(c2ccc(Cl)c(-c3ccccn3)n2)CC1` [Example A-130, N-[1-(3-chloro-2,2′-bipyridin-6-yl)piperidin-4-yl]-3-hydroxypropanamide], the inhibition at 0.05 µM at human Smo was 81.3%. The molecule also showed an IC50 in the assay with Gli-Luc/MEF cells of 35.5 nM.

As for `CC(C)(O)CC(=O)NC1CCN(c2ccc(Cl)c(-c3ccccn3)n2)CC1` [Example A-131, N-[1-(3-chloro-2,2′-bipyridin-6-yl)piperidin-4-yl]-3-hydroxy-3-methylbutanamide], at human Smo, the IC50 stood at 30.5 nM and the inhibition at 0.05 µM was 92.7%. In the assay with Gli-Luc/MEF cells, this molecule returned an IC50 of 20.7 nM.

With `CCS(=O)(=O)NC1CCN(c2ccc(Cl)c(-c3ccccn3)n2)CC1` [Example A-132, N-[1-(3-chloro-2,2′-bipyridin-6-yl)piperidin-4-yl]ethanesulfonamide], at human Smo, the IC50 amounted to 38.2 nM and the inhibition at 0.05 µM was 92%. For the same molecule, inhibition in the assay with Gli-Luc/MEF cells was half-maximal at 33.7 nM (IC50).

On to `O=S(=O)(NC1CCN(c2ccc(Cl)c(-c3ccccn3)n2)CC1)C1CC1` [Example A-133, N-[1-(3-chloro-2,2′-bipyridin-6-yl)piperidin-4-yl]cyclopropanesulfonamide], for which the inhibition at 0.05 µM at human Smo was determined as 94.3%. Moreover, in the assay on Gli-Luc/MEF cells, the IC50 is 11.7 nM.

Take `Cc1cnc(-c2cc(N3CCC(S(C)(=O)=O)CC3)ncc2Cl)c(C)c1` [Example A-134, 5′-chloro-3,5-dimethyl-2′-[4-(methylsulfonyl)piperidin-1-yl]-2,4′-bipyridine]: on human Smo, the IC50 stood at 114 nM and the inhibition at 0.05 µM is 80.8%. This molecule yielded an IC50 in the assay with Gli-Luc/MEF cells of 37.7 nM.

Regarding `COCC(=O)NC1CCN(c2cc(-c3ncc(C)cc3C)c(Cl)cn2)CC1` [Example A-135, N-[1-(5′-chloro-3,5-dimethyl-2,4′-bipyridin-2′-yl)piperidin-4-yl]-2-methoxyacetamide], at human Smo, the IC50 is 40 nM and the inhibition at 0.05 µM was found to be 94%. The IC50 in the assay on Gli-Luc/MEF cells was 7.6 nM.

As for `COCCS(=O)(=O)N1CCN(c2ccc(Cl)c(-c3ccccn3)n2)CC1` [Example A-136, 3-chloro-6-{4-[(2-methoxyethyl)sulfonyl]piperazin-1-yl}-2,2′-bipyridine], on human Smo, the IC50 is 328 nM and the inhibition at 0.05 µM amounted to 58.8%. In the assay on Gli-Luc/MEF cells, this molecule gave an IC50 of 117 nM.

Turning to `CS(=O)(=O)NC1CCN(c2ncc(Cl)c(-c3ccccn3)c2F)CC1` [Example A-138, N-(1-(5′-chloro-3′-fluoro-2,4′-bipyridin-2′-yl)piperidin-4-yl)methanesulfonamide], at human Smo, the IC50 was 84.6 nM and the inhibition at 0.05 µM turned out to be 80.5%. Inhibition in the assay on Gli-Luc/MEF cells was half-maximal at 29.4 nM (IC50).

In the case of `Cc1cnc(-c2c(Cl)cnc(N3CCC(NC(=O)CCS(C)(=O)=O)CC3)c2F)c(C)c1` [Example A-139, N-(1-(5′-chloro-3′-fluoro-3,5-dimethyl-2,4′-bipyridin-2′-yl)piperidin-4-yl)-3-(methylsulfonyl)propanamide], on human Smo, the IC50 is 17.8 nM and the inhibition at 0.05 µM is 101%. Further, inhibition in the assay on Gli-Luc/MEF cells was half-maximal at 1.96 nM (IC50).

For `Cc1cnc(-c2nc(N3CCC(NC(=O)CO)CC3)ccc2Cl)c(C)c1` [Example A-140, N-[1-(3-chloro-3′,5′-dimethyl-2,2′-bipyridin-6-yl)piperidin-4-yl]-2-hydroxyacetamide], the results for the IC50 at human Smo and in the assay with Gli-Luc/MEF cells were 47.7 nM and 19.5 nM, respectively. At human Smo, the inhibition at 0.05 µM amounted to 92%.

Regarding `Cc1cnc(-c2ccnc(N3CCN(C(=O)CCS(C)(=O)=O)CC3)c2)c(C)c1` [Example A-141, 1-[4-(3,5-dimethyl-2,4′-bipyridin-2′-yl)piperazin-1-yl]-3-(methylsulfonyl)propan-1-one], at human Smo, the IC50 was 11.6 nM and the inhibition at 0.05 µM worked out at 96.3%. The molecule also returned an IC50 in the assay with Gli-Luc/MEF cells of 8.42 nM.

Take `Cc1cnc(-c2cc(N3CCN(C(=O)CCS(C)(=O)=O)CC3)ncc2F)c(C)c1` [Example A-142, 1-[4-(5′-fluoro-3,5-dimethyl-2,4′-bipyridin-2′-yl)piperazin-1-yl]-3-(methylsulfonyl)propan-1-one]: on human Smo, the IC50 turned out to be 20.4 nM and the inhibition at 0.05 µM is 92.7%. Moreover, the IC50 with Gli-Luc/MEF cells was found to be 16.6 nM.

`Cc1cnc(-c2ccnc(N3CCC(NS(C)(=O)=O)CC3)c2)c(C)c1` [Example A-143, N-[1-(3,5-dimethyl-2,4′-bipyridin-2′-yl)piperidin-4-yl]methanesulfonamide]: the IC50 at human Smo was found to be 12.2 nM; in the assay with Gli-Luc/MEF cells, 10.4 nM. The inhibition at 0.05 µM at human Smo was 96.3%.

Regarding `Cc1cc(F)cnc1-c1cc(N2CCC(NC(=O)CCS(C)(=O)=O)CC2)ncc1Cl` [Example A-144, N-[1-(5′-chloro-5-fluoro-3-methyl-2,4′-bipyridin-2′-yl)piperidin-4-yl]-3-(methylsulfonyl)propanamide], at human Smo, the IC50 stood at 29.8 nM and the inhibition at 0.05 µM came out at 91.3%. The same molecule gave a half-maximal inhibitory concentration (IC50) in the assay with Gli-Luc/MEF cells of 16.6 nM.

On to `Cc1cc(F)cnc1-c1cc(N2CCC(NC(=O)CN(C)C)CC2)ncc1Cl` [Example A-145, N-[1-(5′-chloro-5-fluoro-3-methyl-2,4′-bipyridin-2′-yl)piperidin-4-yl]-N^2,N^2-dimethylglycinamide], for which the figures for the IC50 at human Smo and in the assay with Gli-Luc/MEF cells were 66.2 nM and 11.3 nM, respectively. In addition, the inhibition at 0.05 µM at human Smo was determined as 88.9%.

Take `Cc1cc(F)cnc1-c1cc(N2CCC(NC(=O)CC(C)(C)O)CC2)ncc1Cl` [Example A-146, N-[1-(5′-chloro-5-fluoro-3-methyl-2,4′-bipyridin-2′-yl)piperidin-4-yl]-3-hydroxy-3-methylbutanamide]: at human Smo, the IC50 was determined as 52.2 nM and the inhibition at 0.05 µM turned out to be 87.4%. Also, in the assay with Gli-Luc/MEF cells, half-maximal inhibition (IC50) was put at 20.7 nM.

As to `Cc1ccc(-c2nc(N3CCN(C(=O)CCS(C)(=O)=O)CC3)ccc2Cl)nc1` [Example A-147, 1-[4-(3-chloro-5′-methyl-2,2′-bipyridin-6-yl)piperazin-1-yl]-3-(methylsulfonyl)propan-1-one], at human Smo, the inhibition at 0.05 µM came out at 94.7%. Besides, half-maximal inhibition in the assay with Gli-Luc/MEF cells (IC50) required 14.4 nM.

As to `Cc1cc(F)cnc1-c1cc(N2CCC(NS(=O)(=O)CCO)CC2)ncc1Cl` [Example A-149, N-[1-(5′-chloro-5-fluoro-3-methyl-2,4′-bipyridin-2′-yl)piperidin-4-yl]-2-hydroxyethanesulfonamide], on human Smo, the IC50 is 20.7 nM and the inhibition at 0.05 µM worked out at 90.6%. The same molecule had an IC50 in the assay on Gli-Luc/MEF cells of 10.1 nM.

Regarding `Cc1cc(F)cnc1-c1cc(N2CCN(S(=O)(=O)CCO)CC2)ncc1Cl` [Example A-150, 2-{[4-(5′-chloro-5-fluoro-3-methyl-2,4′-bipyridin-2′-yl)piperazin-1-yl]sulfonyl}ethanol], the IC50 was determined as 80.9 nM on human Smo and 29.5 nM in the assay on Gli-Luc/MEF cells. Moreover, the inhibition at 0.05 µM on human Smo was found to be 76.9%.

Regarding `Cc1cc(F)cnc1-c1cc(N2CCN(C(=O)CCS(C)(=O)=O)CC2)ncc1Cl` [Example A-151, 1-[4-(5′-chloro-5-fluoro-3-methyl-2,4′-bipyridin-2′-yl)piperazin-1-yl]-3-(methylsulfonyl)propan-1-one], the inhibition at 0.05 µM at human Smo worked out at 101%. Further, it took 8.76 nM to reach half-maximal inhibition in the assay with Gli-Luc/MEF cells (IC50).

`Cc1cc(F)cnc1-c1cc(N2CCN(S(=O)(=O)CC(C)(C)O)CC2)ncc1Cl` [Example A-152, 1-{[4-(5′-chloro-5-fluoro-3-methyl-2,4′-bipyridin-2′-yl)piperazin-1-yl]sulfonyl}-2-methylpropan-2-ol]: the inhibition at 0.05 µM at human Smo came out at 95.9%. In the assay with Gli-Luc/MEF cells, this molecule came in with an IC50 of 11.2 nM.

Consider `Cc1cc(F)cnc1-c1cc(N2CCC(NS(=O)(=O)CC(C)(C)O)CC2)ncc1Cl` [Example A-153, N-[1-(5′-chloro-5-fluoro-3-methyl-2,4′-bipyridin-2′-yl)piperidin-4-yl]-2-hydroxy-2-methylpropane-1-sulfonamide], for which, on human Smo, the IC50 came out at 10.6 nM and the inhibition at 0.05 µM worked out at 96.4%. The molecule also showed an IC50 in the assay on Gli-Luc/MEF cells of 4.71 nM.

As for `Cc1cc(F)cnc1-c1nc(N2CCC(NS(C)(=O)=O)CC2)ccc1Cl` [Example A-154, N-[1-(3-chloro-5′-fluoro-3′-methyl-2,2′-bipyridin-6-yl)piperidin-4-yl]methanesulfonamide], at human Smo, the IC50 came out at 29.2 nM and the inhibition at 0.05 µM was determined as 94.3%. Moreover, half-maximal inhibition in the assay on Gli-Luc/MEF cells (IC50) was put at 39.5 nM.

As to `COCCS(=O)(=O)N1CCN(c2cc(-c3ncc(C)cc3C)ccn2)CC1` [Example A-155, 2′-{4-[(2-methoxyethyl)sulfonyl]piperazin-1-yl}-3,5-dimethyl-2,4′-bipyridine], on human Smo, the IC50 is 97 nM and the inhibition at 0.05 µM was 77.1%. The IC50 with Gli-Luc/MEF cells was found to be 45 nM.
